# Test results taken from publication PMC4075989 (Biochemistry, 2014).
# Where a SMILES comes first, the peptide text is derived from it. [ ]: non-standard residue; d: D form. 2Nal = N[C@@H](Cc1ccc2ccccc2c1)C(=O)O
# Columns and labels:
# [1] = tested on: glucocorticoid receptor (C638G)-GFP fusion (GR-GFP) in HeLa cells; test: GR-GFP translocation assay
# Serum stability test = type: in vitro ADME; settings: human, 25% human serum (supernatant after centrifugation)
# [2] = tested on: HEK293, MCF-7, A549, H1650, and H1299; test: MTT cytotoxicity assay; type: cell-based, human; settings: triplicates
# mammalian cells = settings: cited from earlier work
smiles,measurement,setting,value
"C[C@@H]1C[C@H]2[C@@H]3CCC4=CC(=O)C=C[C@]4(C)[C@@]3(F)[C@@H](O)C[C@]2(C)[C@@]1(O)C(=O)CO [Dex, dexamethasone]",effect of Rab5(Q79L) overexpression on TR,[1],no effect
N=C(N)NCCC[C@H](NC(=O)[C@H](CCCNC(=N)N)NC(=O)[C@H](CCCNC(=N)N)NC(=O)[C@H](CCCNC(=N)N)NC(=O)[C@H](CCCNC(=N)N)NC(=O)[C@H](CCCNC(=N)N)NC(=O)[C@H](CCCNC(=N)N)NC(=O)[C@H](CCCNC(=N)N)NC(=O)[C@@H](N)CCCNC(=N)N)C(=O)O [R9],half-life,Serum stability test,~30 min
N=C(N)NCCC[C@H](NC(=O)[C@H](CCCNC(=N)N)NC(=O)[C@H](CCCNC(=N)N)NC(=O)[C@H](CCC(N)=O)NC(=O)[C@H](CCCNC(=N)N)NC(=O)[C@H](CCCNC(=N)N)NC(=O)[C@H](CCCCN)NC(=O)[C@H](CCCCN)NC(=O)[C@H](CCCNC(=N)N)NC(=O)CNC(=O)[C@@H](N)Cc1ccc(O)cc1)C(=O)O [Tat],half-life,Serum stability test,~30 min
N=C(N)NCCC[C@@H]1NC(=O)[C@H](CCCNC(=N)N)NC(=O)[C@H](CCCNC(=N)N)NC(=O)[C@H](Cc2ccc3ccccc3c2)NC(=O)[C@H](Cc2ccccc2)NC(=O)[C@H](CCC(N)=O)NC(=O)[C@H](CCCNC(=N)N)NC1=O [cFΦR4] (cyclo(F[2Nal]RRRRQ)),"remaining at 24 h, 5 µM",Serum stability test,> 70%
same,growth inhibition after 72 h,"[2]; 50 μM, 72 h",up to 20%
same,growth inhibition after 24 or 48 h,"[2]; up to 50 μM, any of five human cell lines",no significant growth inhibition
same,efficiency of entering the cytoplasm and nucleus relative to nonaarginine (R9),mammalian cells,2–5 fold
